For one molecule, IC50 results are on record in PMC3849272, “Strong cellulase inhibitors from the hydrothermal pretreatment of wheat straw” (Biotechnology for Biofuels, 2013).

One assay has as its target T1, TrCel7B (Trichoderma reesei, UniProt P07981).
T1 construct: gene egl1; native enzyme purified from culture filtrate of T. reesei QM 9414; secreted, signal peptide removed
T1 sequence (P07981 23-459): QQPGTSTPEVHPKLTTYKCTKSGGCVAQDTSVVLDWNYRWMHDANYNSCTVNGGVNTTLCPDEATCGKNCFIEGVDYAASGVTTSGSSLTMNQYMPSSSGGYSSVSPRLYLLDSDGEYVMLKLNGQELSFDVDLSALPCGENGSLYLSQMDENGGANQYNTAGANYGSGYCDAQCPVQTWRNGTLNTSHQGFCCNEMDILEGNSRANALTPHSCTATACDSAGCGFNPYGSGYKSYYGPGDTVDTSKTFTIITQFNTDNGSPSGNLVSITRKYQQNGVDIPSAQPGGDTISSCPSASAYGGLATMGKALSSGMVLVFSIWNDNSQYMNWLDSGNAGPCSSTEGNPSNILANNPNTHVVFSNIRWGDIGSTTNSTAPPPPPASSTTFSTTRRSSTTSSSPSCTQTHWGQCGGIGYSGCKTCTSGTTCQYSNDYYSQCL
In words: inhibition of 4-methylumbelliferyl-beta-lactoside hydrolysis, fluorescence, initial rates. The assay is classed as biochemical. Conditions: 20 μM MUL, 10 nM enzyme, 50 mM sodium acetate pH 5.0, BSA 0.1 g/l, 35°C.

Another assay has as its target T2, TrCel7A (Trichoderma reesei, UniProt P62694).
T2 construct: gene cbh1; native enzyme purified from culture filtrate of T. reesei QM 9414; secreted, signal peptide removed; about 50 kDa
T2 sequence (P62694 18-513): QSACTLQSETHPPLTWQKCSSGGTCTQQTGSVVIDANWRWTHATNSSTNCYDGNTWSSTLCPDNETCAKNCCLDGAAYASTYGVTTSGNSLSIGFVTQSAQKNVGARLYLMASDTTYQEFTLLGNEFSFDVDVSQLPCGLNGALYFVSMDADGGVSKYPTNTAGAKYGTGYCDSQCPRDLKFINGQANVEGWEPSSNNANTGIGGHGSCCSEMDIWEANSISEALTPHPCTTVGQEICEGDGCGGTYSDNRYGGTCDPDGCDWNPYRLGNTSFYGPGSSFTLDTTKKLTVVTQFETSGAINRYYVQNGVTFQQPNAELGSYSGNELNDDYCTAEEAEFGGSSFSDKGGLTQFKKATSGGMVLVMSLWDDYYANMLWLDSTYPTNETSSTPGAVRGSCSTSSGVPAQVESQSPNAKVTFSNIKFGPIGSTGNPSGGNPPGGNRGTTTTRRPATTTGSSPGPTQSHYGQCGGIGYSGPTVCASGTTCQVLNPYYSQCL
Described as above. Conditions: 5 μM MUL, 10 nM enzyme, 50 mM sodium acetate pH 5.0, BSA 0.1 g/l, 35°C. The assay is classed as biochemical.

As a reminder, the IC50 is the concentration that gives 50% inhibition. A high value points to weaker potency. On to `OC[C@H]1O[C@@H](O[C@H]2[C@H](O)[C@@H](O)C(O)O[C@@H]2CO)[C@H](O)[C@@H](O)[C@@H]1O` (some centres unmarked) [cellobiose], for which the results for the IC50 against TrCel7B and at TrCel7A were 8.9 ± 0.4 mM and 0.036 ± 0.006 mM, respectively.
